Measured values from US9079888B2, “Compounds as histamine H3 receptor ligands” (Suven Life Sciences Limited, priority 2011, dated 2015).
Where two headings read alike, the source gives them in different places.

What was measured:
in vivo = settings: male, Wistar, rat, po, 3 mg/kg
Experimental: (§2) Male Wistar rats (230-280 grams) obtained from NIN (National Institute of Nutrition, Hyderabad, India) were used as an experimental animal. Three animals were housed in each cage. Animals were kept fasted over night and maintained on a 12 hours light/dark cycle. Three rats were dosed New chemical entity (NCE) orally (3 or 10 mg/kg) and intravenously (1 or 5 mg/kg) on day 0 and day 2.
(§3) At each time point blood was collected by jugular vein. Blood was stored at 2-8° C. until analysis. The concentrations of the NCE compound in blood were determined using LC-MS/MS method. Schedule time points: Pre dose 0.08, 0.25, 0.5, 1, 2, 4, 6, 8 and 24 hours after dosing (n=3). The NCE compounds were quantified in blood by partially validated LC-MS/MS method using acetonitrile precipitation technique. […] Study samples were analyzed using calibration samples in the batch and quality control samples spread across the batch.
(§4) Pharmacokinetic parameters were calculated by non-compartmental model using software WinNonlin version 5.0.1.

Male Wister rats = assay: Object Recognition Task Model; type: in vivo; settings: rat; for Exploration time mean ± S.E.M, Familiar object / Exploration time mean ± S.E.M, Novel object: choice trial T2 24 h after T1
Experimental: (§1) The cognition enhancing properties of compounds of this invention were estimated by using this model.
Male Wister rats (230-280 grams) obtained from N. I. N. (National Institute of Nutrition, Hyderabad, India) was used as experimental animals. Four animals were housed in each cage. Animals were kept on 20% food deprivation before one day and given water ad libitum throughout the experiment and maintained on a 12 hours light/dark cycle. Also the rats were habituated to individual arenas for 1 hour in the absence of any objects.
One group of 12 rats received vehicle (1 mL/Kg) orally and another set of animals received compound of the formula (I) either orally or i.p., before one hour of the familiar (T1) and choice trial (T2).
The experiment was carried out in a 50×50×50 cm open field made up of acrylic. In the familiarization phase, (T1), the rats were placed individually in the open field for 3 minutes, in which two identical objects (plastic bottles, 12.5 cm height×5.5 cm diameter) covered in yellow masking tape alone (a1 and a2) were positioned in two adjacent corners, 10 cms from the walls. After 24 hours of the (T1) trial for long-term memory test, the same rats were placed in the same arena as they were placed in T1 trial. Choice phase (T2) rats were allowed to explore the open field for 3 minutes in presence of one familiar object (a3) and one novel object (b) (Amber color glass bottle, 12 cm high and 5 cm in diameter). Familiar objects presented similar textures, colors and sizes. During the T1 and T2 trial, explorations of each object (defined as sniffing, licking, chewing or having moving vibrissae whilst directing the nose towards the object at a distance of less than 1 cm) were recorded separately by stopwatch. Sitting on an object was not regarded as exploratory activity, however, it was rarely observed.
T1 is the total time spent exploring the familiar objects (a1+a2).
T2 is the total time spent exploring the familiar object and novel object (a3+b).
The object recognition test was performed as described by Ennaceur, A., Delacour, J., 1988, A new one-trial test for neurobiological studies of memory in rats—Behavioural data, Behay. Brain Res., 31, 47-59.

[1] = male, Wistar, rat, in vivo
Experimental: as §2, §3, §4

[2] = test system: Scopolamine Induced amnesia; assay: Morris Water Maze; type: in vivo, rats; settings: rat, active dose p.o.
Experimental: as §1
The water maze apparatus consisted of a circular pool (1.8 m diameter, 0.6 m high) constructed in black Perspex (TSE systems, Germany) filled with water (24±2° C.) and positioned underneath a wide-angled video camera to track animal. The 10 cm^2 perspex platform, lying 1 cm below the water surface, was placed in the centre of one of the four imaginary quadrants, which remained constant for all rats. The black Perspex used in the construction of the maze and platform offered no intramaze cues to guide escape behavior. By contrast, the training room offered several strong extramaze visual cues to aid the formation of the spatial map necessary for escape learning. An automated tracking system, [Videomot 2 (5.51), TSE systems, Germany] was employed. This program analyzes video images acquired via a digital camera and an image acquisition boards that determined path length, swim speed and the number of entries and duration of swim time spent in each quadrant of the water maze.

[3] = Rodent Brain Penetration Study; type: in vivo, Male Wister rats; settings: brain / whole blood; Wistar/Male rat, Per Oral, 3 mg/kg, vehicle water; read-out: Brain Penetration Ratio (Cbrain/Cblood)
Experimental: Three animals were housed in each cage. Animals were given water and food ad libitum throughout the experiment, and maintained on a 12 hours light/dark cycle.
New chemical entity (NCE) was dissolved in suitable vehicle and administered orally (3 or 10 mg/kg). […] Blood and brain tissue were collected and brain was homogenized to yield 20% w/v. Blood was stored at 2-8° C. and brain homogenate was frozen at −20° C. until analysis. The concentrations of NCE in blood and brain were quantified using LC-MS/MS method.
Extents of brain-blood ratio were calculated (Cbrian/Cblood)

[4] = Rodent Pharmacokinetic Study; settings: male, Wistar, rat, whole blood
Experimental: as §2, §3, §4

[5] = biological target: Human or Rat Histamine H3 Receptor; assay: Binding assay for human or rat Histamine H3 receptor ([3H] R-α-methylhistamine displacement); settings: radioligand [3H] R-α-methylhistamine 3.0 nM; receptor source rat brain frontal cortex or recombinant human cDNA in CHO cells (table does not say which)
Experimental: The reaction was terminated by rapid vacuum filtration onto the glass fiber filters. Radioactivity trapped onto the filters was determined and compared to the control values in order to ascertain any interactions of the test compound(s) with either cloned human or rat receptor binding site.

Structure (SMILES): Cl.Cl.O=C(CN1CCOCC1)Nc1ccc(OC2CCN(C3CCC3)CC2)cc1 [Example 1, N-[4-(1-Cyclobutylpiperidin-4-yloxy)phenyl]-2-(morpholin-4-yl)-acetamide dihydrochloride]
- Cmax (in vivo): 349 ± 35 ng/mL
- Tmax (in vivo): 25.2 ± 8.4 min
- bioavailability (in vivo): 79 ± 11%
- Inference (Male Wister rats; 0.3 mg/kg p.o.): Active
- Exploration time mean ± S.E.M, Familiar object (Male Wister rats; 0.3 mg/kg p.o.): 5.56 ± 0.81 s
- Exploration time mean ± S.E.M, Novel object (Male Wister rats; 0.3 mg/kg p.o.): 15.36 ± 1.74 s
- AUCt ([1]; iv, 1 mg/kg): 263 ± 21 ng·h/mL
- AUCt ([1]; po, 3 mg/kg): 626 ± 118 ng·h/mL
- Reversal of Scopolamine Induced amnesia [2]: ≦1 mg/kg, p.o.
- Kp [3]: 0.93 ± 0.05

Structure (SMILES): Cl.Cl.O=C(CN1CCOCC1)Nc1ccc(OC2CCN(C3CCC3)CC2)cc1F [Example 3, N-[4-(1-Cyclobutylpiperidin-4-yloxy)-2-fluorophenyl]-2-(morpholin-4-yl)acetamide dihydrochloride]
- Inference (Male Wister rats; 3 mg/kg p.o.): Active
- Exploration time mean ± S.E.M, Familiar object (Male Wister rats; 3 mg/kg p.o.): 6.77 ± 0.44 s
- Exploration time mean ± S.E.M, Novel object (Male Wister rats; 3 mg/kg p.o.): 12.49 ± 1.59 s
- AUC(0-t) ([4]; iv, 1 mg/kg): 173 ± 60 ng·h/mL
- half-life ([4]; iv, 1 mg/kg): 33.6 ± 11.4 min
- AUC(0-t) ([4]; po, 3 mg/kg): 174 ± 43 ng·h/mL
- Cmax ([4]; po, 3 mg/kg): 129 ± 34 ng/mL
- Tmax ([4]; po, 3 mg/kg): 25.2 ± 8.4 min
- bioavailability ([4]; po, 3 mg/kg): 35 ± 5%
- half-life ([4]; po, 3 mg/kg): 87.6 ± 45 min
- Ki [5]: 14.9 nM
- Kp [3]: 2.07 ± 0.07
